PubChem BioAssay AID743034 (The Scripps Research Institute Molecular Screening Center, 2013)
Active and inactive are the calls of the source.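 How the source made its calls: active means half-life above 60 minutes with both human and mouse liver microsomes; inactive means half-life below 60 minutes in both species.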

How the values were obtained:
[1] = tested on: Pooled human microsomes; assay: liver microsomal half-life of V1a-R antagonists, late-stage follow-up, ADME assay for V1a-R antagonist project, biochemical, LC-MS/MS, human and mouse microsomes, powder samples (AID 743034); conditions: at 1 µM, hits give high values
[2] = tested on: Pooled mouse microsomes; assay: as above; conditions: at 1 µM, hits give high values

- half-life [1]: 23.8 min (inactive)
- half-life [2]: 7.8 min (inactive)
Compound: O=C(C1CCN(c2ccc(Cl)cn2)CC1)N(CC1CC1)c1ccc(Cl)cc1
